In BindingDB's records for PubMed 21964340:

Experiments:
[1] = molecular target: Sodium-dependent noradrenaline transporter (Homo sapiens) (UniProt P23975); test: Inhibition of human NET by scintillation proximity assay
[2] = Inhibition of OGT (unknown origin) incubated for 1 hr by colloidal coomassie staining based LC-MS/MS analysis
[3] = Inhibition of TKT (unknown origin) incubated for 1 hr by colloidal coomassie staining based LC-MS/MS analysis
[4] = Inhibition of RFC1 (unknown origin) incubated for 1 hr by colloidal coomassie staining based LC-MS/MS analysis
[5] = Inhibition of PUS1 (unknown origin) incubated for 1 hr by colloidal coomassie staining based LC-MS/MS analysis
[6] = Inhibition of RPN2 (unknown origin) incubated for 1 hr by colloidal coomassie staining based LC-MS/MS analysis
[7] = Inhibition of ARL1 (unknown origin) incubated for 1 hr by colloidal coomassie staining based LC-MS/MS analysis
[8] = Inhibition of UBA1 (unknown origin) incubated for 1 hr by colloidal coomassie staining based LC-MS/MS analysis
[9] = Inhibition of KPNA1 (unknown origin) incubated for 1 hr by colloidal coomassie staining based LC-MS/MS analysis
[10] = Inhibition of CCNL2 (unknown origin) incubated for 1 hr by colloidal coomassie staining based LC-MS/MS analysis
[11] = Inhibition of PTBP1 (unknown origin) incubated for 1 hr by colloidal coomassie staining based LC-MS/MS analysis
[12] = Inhibition of INTS8 (unknown origin) incubated for 1 hr by colloidal coomassie staining based LC-MS/MS analysis
[13] = Inhibition of LAS1L (unknown origin) incubated for 1 hr by colloidal coomassie staining based LC-MS/MS analysis
[14] = Inhibition of ABCF1 (unknown origin) incubated for 1 hr by colloidal coomassie staining based LC-MS/MS analysis
[15] = Inhibition of NACC1 (unknown origin) incubated for 1 hr by colloidal coomassie staining based LC-MS/MS analysis
[16] = Inhibition of WDR33 (unknown origin) incubated for 1 hr by colloidal coomassie staining based LC-MS/MS analysis
[17] = Inhibition of PIAS4 (unknown origin) incubated for 1 hr by colloidal coomassie staining based LC-MS/MS analysis
[18] = Inhibition of LENG8 (unknown origin) incubated for 1 hr by colloidal coomassie staining based LC-MS/MS analysis
[19] = Inhibition of PRDX6 (unknown origin) incubated for 1 hr by colloidal coomassie staining based LC-MS/MS analysis
[20] = Inhibition of POLR2B (unknown origin) incubated for 1 hr by colloidal coomassie staining based LC-MS/MS analysis
[21] = Inhibition of CORO1A (unknown origin) incubated for 1 hr by colloidal coomassie staining based LC-MS/MS analysis
[22] = Inhibition of PSMD11 (unknown origin) incubated for 1 hr by colloidal coomassie staining based LC-MS/MS analysis
[23] = Inhibition of RPS15A (unknown origin) incubated for 1 hr by colloidal coomassie staining based LC-MS/MS analysis
[24] = Inhibition of SFRS10 (unknown origin) incubated for 1 hr by colloidal coomassie staining based LC-MS/MS analysis
[25] = Inhibition of SMCHD1 (unknown origin) incubated for 1 hr by colloidal coomassie staining based LC-MS/MS analysis
[26] = Inhibition of SF3B14 (unknown origin) incubated for 1 hr by colloidal coomassie staining based LC-MS/MS analysis
[27] = Inhibition of CSNK2A1 (unknown origin) incubated for 1 hr by colloidal coomassie staining based LC-MS/MS analysis
[28] = Inhibition of HIST1H2BA (unknown origin) incubated for 1 hr by colloidal coomassie staining based LC-MS/MS analysis
[29] = Binding affinity against ELL (unknown origin) assessed as apparent dissociation constant incubated for 1 hr by colloidal coomassie staining based LC-MS/MS analysis
[30] = Binding affinity against OGT (unknown origin) assessed as apparent dissociation constant incubated for 1 hr by colloidal coomassie staining based LC-MS/MS analysis
[31] = Binding affinity against DSG1 (unknown origin) assessed as apparent dissociation constant incubated for 1 hr by colloidal coomassie staining based LC-MS/MS analysis
[32] = Binding affinity against RFC1 (unknown origin) assessed as apparent dissociation constant incubated for 1 hr by colloidal coomassie staining based LC-MS/MS analysis
[33] = Binding affinity against BRD9 (unknown origin) assessed as apparent dissociation constant incubated for 1 hr by colloidal coomassie staining based LC-MS/MS analysis
[34] = Binding affinity against CCT2 (unknown origin) assessed as apparent dissociation constant incubated for 1 hr by colloidal coomassie staining based LC-MS/MS analysis
[35] = Binding affinity against NOLC1 (unknown origin) assessed as apparent dissociation constant incubated for 1 hr by colloidal coomassie staining based LC-MS/MS analysis
[36] = Binding affinity against PSME3 (unknown origin) assessed as apparent dissociation constant incubated for 1 hr by colloidal coomassie staining based LC-MS/MS analysis
[37] = Binding affinity against GTF2I (unknown origin) assessed as apparent dissociation constant incubated for 1 hr by colloidal coomassie staining based LC-MS/MS analysis
[38] = Binding affinity against PWWP2B (unknown origin) assessed as apparent dissociation constant incubated for 1 hr by colloidal coomassie staining based LC-MS/MS analysis
[39] = Binding affinity against TUBA4A (unknown origin) assessed as apparent dissociation constant incubated for 1 hr by colloidal coomassie staining based LC-MS/MS analysis
[40] = Binding affinity against SETD1B (unknown origin) assessed as apparent dissociation constant incubated for 1 hr by colloidal coomassie staining based LC-MS/MS analysis

Sequence of Sodium-dependent noradrenaline transporter (Homo sapiens) (P23975 whole entry, looked up): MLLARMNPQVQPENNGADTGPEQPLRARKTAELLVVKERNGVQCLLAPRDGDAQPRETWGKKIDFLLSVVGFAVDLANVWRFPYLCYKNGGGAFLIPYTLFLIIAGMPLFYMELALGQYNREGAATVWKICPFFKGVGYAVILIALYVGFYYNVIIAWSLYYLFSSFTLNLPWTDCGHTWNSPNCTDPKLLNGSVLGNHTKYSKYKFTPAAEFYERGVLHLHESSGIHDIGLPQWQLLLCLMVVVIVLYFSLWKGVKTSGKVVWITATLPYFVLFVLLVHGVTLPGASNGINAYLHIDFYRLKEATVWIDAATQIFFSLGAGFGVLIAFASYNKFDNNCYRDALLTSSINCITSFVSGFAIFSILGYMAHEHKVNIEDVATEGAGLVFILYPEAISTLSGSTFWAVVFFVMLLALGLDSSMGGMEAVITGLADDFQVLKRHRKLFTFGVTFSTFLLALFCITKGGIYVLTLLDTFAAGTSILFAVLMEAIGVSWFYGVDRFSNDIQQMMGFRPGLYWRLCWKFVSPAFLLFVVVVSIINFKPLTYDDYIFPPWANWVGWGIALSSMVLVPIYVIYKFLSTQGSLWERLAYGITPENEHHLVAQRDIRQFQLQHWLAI

With `CCNC(=O)C[C@@H]1N=C(c2ccc(Cl)cc2)c2cc(OC)ccc2-n2c(C)nnc21` as the compound, how does the IC50 [1] read?
Its IC50 is over 100000 nM.

What about the IC50 [2] of the same compound?
The IC50 was 480 nM.

What about the IC50 [3] of the same compound?
Its IC50 is 5270 nM.

What about the IC50 [4] of the same compound?
The IC50 was 50 nM.

And the IC50 [5]?
Its IC50 is over 10000 nM.

And the IC50 [6]?
Its IC50 is over 10000 nM.

And the IC50 [7]?
Its IC50 is over 10000 nM.

What about the IC50 [8] of the same compound?
Its IC50 is over 10000 nM.

What about the IC50 [9] of the same compound?
The IC50 was 30 nM.

And the IC50 [10]?
Its IC50 is 50 nM.

And the IC50 [11]?
Its IC50 is over 10000 nM.

What about the IC50 [12] of the same compound?
The IC50 was over 10000 nM.

And the IC50 [13]?
Its IC50 is 270 nM.

What about the IC50 [14] of the same compound?
Its IC50 is over 10000 nM.

What about the IC50 [15] of the same compound?
Its IC50 is over 10000 nM.

What about the IC50 [16] of the same compound?
The IC50 was 1090 nM.

What about the IC50 [17] of the same compound?
Its IC50 is over 10000 nM.

What about the IC50 [18] of the same compound?
The IC50 was 100 nM.

What about the IC50 [19] of the same compound?
The IC50 was over 10000 nM.

What about the IC50 [20] of the same compound?
The IC50 was 150 nM.

And the IC50 [21]?
Its IC50 is over 10000 nM.

What about the IC50 [22] of the same compound?
The IC50 was 60 nM.

And the IC50 [23]?
Its IC50 is 1390 nM.

And the IC50 [24]?
The IC50 was 230 nM.

What about the IC50 [25] of the same compound?
The IC50 was 1070 nM.

What about the IC50 [26] of the same compound?
Its IC50 is over 10000 nM.

And the IC50 [27]?
Its IC50 is 120 nM.

What about the IC50 [28] of the same compound?
The IC50 was over 10000 nM.

And the Kd [29]?
The Kd was 66 nM.

What about the Kd [30] of the same compound?
The Kd was 223 nM.

And the Kd [31]?
Its Kd is 4620 nM.

What about the Kd [32] of the same compound?
The Kd was 54 nM.

And the Kd [33]?
The Kd was 20 nM.

What about the Kd [34] of the same compound?
The Kd was 1620 nM.

What about the Kd [35] of the same compound?
The Kd was 63 nM.

What about the Kd [36] of the same compound?
Its Kd is 84 nM.

And the Kd [37]?
Its Kd is 7550 nM.

What about the Kd [38] of the same compound?
Its Kd is 25 nM.

What about the Kd [39] of the same compound?
Its Kd is 102 nM.

And the Kd [40]?
The Kd was 45 nM.
